These results are taken from patent US9096601B2 (CSPC Zhongqi Pharmaceutical Technology (Shijiazhuang) Co., …, priority 2010, dated 2015).

Read-outs that look alike come from different tables or passages of the source.

What is called IC50 is the concentration needed to halve the response being measured.

One experiment concerns the target EGFR L858R mutant type (Homo sapiens (Human), UniProt P00533, L858R). The experiment in a line: Kinase inhibitory activity, isotopic labeling (γ-33P-ATP). In kind it is biochemical. As to conditions: ATP 200 μM (Km). As for the experimental part:
(§1) The object of this assay was to test the inventive compounds for the kinase inhibitory activity in vitro. In this assay, an isotopic labeling method was used to label the γ phosphate group on ATP. […] Staurosporine was used as a reference molecule (or referred to as a positive control). […] The IC50 value can be obtained by the calculation of the inhibitory rates at a series of different concentrations of the tested compounds.
(§2) To a reaction tube were successively added the buffer solution (8 mM MOPS, pH 7.0, 0.2 mM EDTA, 10 mM MnCl2), the kinase to be tested (5-10 mU) (EGFR/ALK/BTK/c-KIT/c-SRC/MET/PDGFRα/VEGFR2), the substrate for the kinase to be tested (a reference material), 10 mM of the solution of magnesium acetate and γ-^33 P-ATP, and different concentrations of the tested compounds. […] The reaction was terminated with […] of the 3% phosphate buffer solution. 10 μL of the reaction liquid was titrated on the Filtermat A membrane. The membrane was washed with 75 mM of the phosphate solution thrice (5 minutes each time), and then with methanol once, and finally dried. The membrane was subjected to a scintillation counting. The value of the scintillation counting reflected the phosphorylation level of the substrate and therefore could characterize the inhibition of the kinase activity.

In experiment [1] the target is EGFR L858R/T790M double mutant type (Homo sapiens (Human), UniProt P00533, L858R/T790M). Described as above. As to conditions: ATP 45 μM (Km). In kind it is biochemical. As for the experimental part:
as §1, §2

In the next experiment the target is EGFR wild type (Homo sapiens (Human), UniProt P00533). Described as above. Format: biochemical. As to conditions: ATP 10 μM (Km). The procedure:
as §1, §2

Experiment [2] deals with non-small cell lung carcinoma cell strain H1975 (EGFR L858R/T790M mutation). The experiment in a line: In-vitro tumor cell proliferation inhibition, MTT. Format: cell-based, human.
The subject of experiment [3] is non-small cell lung carcinoma cell strain H292 (EGFR WT). The experiment is described as follows: In-vitro tumor cell proliferation inhibition, MTT. Format: cell-based, human.
For experiment [4], the system named is non-small cell lung carcinoma cell strain HCC827. The experiment is described as follows: In-vitro tumor cell proliferation inhibition, MTT. Format: cell-based, human. The gist of the method: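 Cells grown in RPMI-1640 with 10% FBS, seeded overnight (HCC827 at 6×10^4 cells/ml), then exposed to graded compound concentrations for 72 h at 37 °C, 5% CO2, with 1% DMSO solvent control. MTT absorbance at 570 nm; inhibition relative to control; triplicate wells, ≥3 repeats.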

The test system of experiment [5] is non-small cell lung carcinoma cell strain PC-9 (EGFR delE746-A750 deletion mutation). The experiment is described as follows: In-vitro tumor cell proliferation inhibition, MTT. Format: cell-based, human. The conditions noted are these: 72 hours.
Experiment [6] deals with breast carcinoma cell strain BT474. The experiment in a line: In-vitro tumor cell proliferation inhibition, MTT. Format: cell-based, human. The gist of the method:
(§3)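 MTT colorimetric proliferation test: plated cells exposed 72 h to compound dilution series, DMSO 1% solvent control included. A570 gave inhibition relative to drug-free control; IC50 or inhibitory rate from at least three experiments. HCC827 and BT474 grown in RPMI-1640, A431 and SW620 in DMEM, both with 10% FBS.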

Experiment [7] deals with breast carcinoma cell strain MDA-MB-468. The experiment in a line: In-vitro tumor cell proliferation inhibition, MTT. In kind it is cell-based, human.
Experiment [8] relates to chronic granulocytic leukemia cell strain K562. The experiment in a line: In-vitro tumor cell proliferation inhibition, MTT. Format: cell-based, human.
Experiment [9] concerns colon cancer cell strain SW480. The experiment is described as follows: In-vitro tumor cell proliferation inhibition, MTT. In kind it is cell-based, human.
In experiment [10] the test system is colon cancer cell strain SW620. The experiment is described as follows: In-vitro tumor cell proliferation inhibition, MTT. In kind it is cell-based, human. The method, boiled down: as §3
Experiment [11] relates to gastric cancer cell strain MK-45. The experiment is described as follows: In-vitro tumor cell proliferation inhibition, MTT. In kind it is cell-based, human. The conditions noted are these: 72 hours, read-out: MK45 (IC50).
The subject of experiment [12] is liver cancer cell strain Hep G2. The experiment in a line: In-vitro tumor cell proliferation inhibition, MTT. In kind it is cell-based, human.
The test system of experiment [13] is malignant melanoma cell strain A375. The experiment is described as follows: In-vitro tumor cell proliferation inhibition, MTT. Format: cell-based, human.
The test system of experiment [14] is squamous cell carcinoma cell strain A431. The experiment is described as follows: In-vitro tumor cell proliferation inhibition, MTT. Format: cell-based, human. The gist of the method: as §3
Setting [15] is: 72 hours, read-out: HEPG2 (IC50).

Sequence of EGFR L858R/T790M double mutant type (P00533 25-1210 T790M/L858R): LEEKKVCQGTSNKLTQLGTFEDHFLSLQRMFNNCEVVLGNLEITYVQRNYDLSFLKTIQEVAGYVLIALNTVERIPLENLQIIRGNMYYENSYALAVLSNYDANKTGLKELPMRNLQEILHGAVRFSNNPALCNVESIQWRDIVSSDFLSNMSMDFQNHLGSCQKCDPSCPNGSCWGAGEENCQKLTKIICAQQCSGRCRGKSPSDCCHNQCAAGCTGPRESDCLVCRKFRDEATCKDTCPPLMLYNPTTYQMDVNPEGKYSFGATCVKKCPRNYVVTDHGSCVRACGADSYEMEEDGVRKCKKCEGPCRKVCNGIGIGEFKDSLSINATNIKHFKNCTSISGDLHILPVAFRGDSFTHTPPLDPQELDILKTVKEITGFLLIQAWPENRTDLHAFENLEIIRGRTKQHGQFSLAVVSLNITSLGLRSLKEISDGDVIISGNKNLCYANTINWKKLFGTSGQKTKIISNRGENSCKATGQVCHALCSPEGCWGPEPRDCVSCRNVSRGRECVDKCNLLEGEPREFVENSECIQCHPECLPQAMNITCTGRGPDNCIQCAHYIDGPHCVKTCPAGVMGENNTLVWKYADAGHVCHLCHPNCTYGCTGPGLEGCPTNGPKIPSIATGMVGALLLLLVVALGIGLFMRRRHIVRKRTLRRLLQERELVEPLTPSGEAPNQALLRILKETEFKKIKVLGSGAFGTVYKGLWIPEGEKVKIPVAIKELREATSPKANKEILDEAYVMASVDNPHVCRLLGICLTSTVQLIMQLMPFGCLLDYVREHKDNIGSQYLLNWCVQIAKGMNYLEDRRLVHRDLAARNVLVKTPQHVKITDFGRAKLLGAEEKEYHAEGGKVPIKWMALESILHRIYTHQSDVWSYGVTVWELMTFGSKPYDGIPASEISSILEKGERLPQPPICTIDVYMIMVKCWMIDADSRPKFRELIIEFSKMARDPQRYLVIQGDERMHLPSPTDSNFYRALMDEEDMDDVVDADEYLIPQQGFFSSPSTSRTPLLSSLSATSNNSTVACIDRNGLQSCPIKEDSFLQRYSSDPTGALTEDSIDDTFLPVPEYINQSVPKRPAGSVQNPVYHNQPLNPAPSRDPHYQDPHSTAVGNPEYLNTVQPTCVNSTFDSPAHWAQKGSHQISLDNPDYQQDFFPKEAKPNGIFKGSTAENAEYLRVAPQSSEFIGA
Sequence of EGFR L858R mutant type (P00533 25-1210 L858R): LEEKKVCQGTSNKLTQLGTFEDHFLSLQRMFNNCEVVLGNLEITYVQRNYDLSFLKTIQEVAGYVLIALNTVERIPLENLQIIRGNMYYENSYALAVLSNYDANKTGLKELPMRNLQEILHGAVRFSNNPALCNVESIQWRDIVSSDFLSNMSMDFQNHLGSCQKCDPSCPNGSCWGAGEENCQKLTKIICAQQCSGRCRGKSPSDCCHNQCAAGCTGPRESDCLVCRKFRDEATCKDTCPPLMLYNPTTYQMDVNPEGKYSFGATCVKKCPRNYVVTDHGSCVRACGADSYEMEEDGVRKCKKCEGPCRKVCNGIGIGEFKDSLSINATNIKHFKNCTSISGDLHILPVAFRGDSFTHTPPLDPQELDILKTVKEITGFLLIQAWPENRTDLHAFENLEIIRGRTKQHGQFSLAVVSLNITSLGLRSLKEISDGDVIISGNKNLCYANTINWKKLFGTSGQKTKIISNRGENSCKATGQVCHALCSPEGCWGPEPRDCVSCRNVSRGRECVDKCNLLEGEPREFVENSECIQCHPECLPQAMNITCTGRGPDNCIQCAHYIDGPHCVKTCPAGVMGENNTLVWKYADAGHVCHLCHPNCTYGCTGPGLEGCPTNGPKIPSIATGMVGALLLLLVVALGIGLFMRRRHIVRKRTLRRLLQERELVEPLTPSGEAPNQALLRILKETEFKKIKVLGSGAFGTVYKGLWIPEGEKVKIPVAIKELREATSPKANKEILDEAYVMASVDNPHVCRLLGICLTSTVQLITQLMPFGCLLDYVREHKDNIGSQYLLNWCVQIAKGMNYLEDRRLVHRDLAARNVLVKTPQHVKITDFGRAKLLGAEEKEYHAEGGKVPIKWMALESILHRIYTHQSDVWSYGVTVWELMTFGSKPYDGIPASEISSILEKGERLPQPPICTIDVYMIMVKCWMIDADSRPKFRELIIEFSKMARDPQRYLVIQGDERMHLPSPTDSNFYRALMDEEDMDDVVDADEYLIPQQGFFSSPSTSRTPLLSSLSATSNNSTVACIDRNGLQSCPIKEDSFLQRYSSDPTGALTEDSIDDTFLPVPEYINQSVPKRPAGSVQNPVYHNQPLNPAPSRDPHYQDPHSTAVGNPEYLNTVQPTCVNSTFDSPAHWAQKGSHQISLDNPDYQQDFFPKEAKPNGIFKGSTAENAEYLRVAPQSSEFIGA
Sequence of EGFR wild type (P00533 25-1210): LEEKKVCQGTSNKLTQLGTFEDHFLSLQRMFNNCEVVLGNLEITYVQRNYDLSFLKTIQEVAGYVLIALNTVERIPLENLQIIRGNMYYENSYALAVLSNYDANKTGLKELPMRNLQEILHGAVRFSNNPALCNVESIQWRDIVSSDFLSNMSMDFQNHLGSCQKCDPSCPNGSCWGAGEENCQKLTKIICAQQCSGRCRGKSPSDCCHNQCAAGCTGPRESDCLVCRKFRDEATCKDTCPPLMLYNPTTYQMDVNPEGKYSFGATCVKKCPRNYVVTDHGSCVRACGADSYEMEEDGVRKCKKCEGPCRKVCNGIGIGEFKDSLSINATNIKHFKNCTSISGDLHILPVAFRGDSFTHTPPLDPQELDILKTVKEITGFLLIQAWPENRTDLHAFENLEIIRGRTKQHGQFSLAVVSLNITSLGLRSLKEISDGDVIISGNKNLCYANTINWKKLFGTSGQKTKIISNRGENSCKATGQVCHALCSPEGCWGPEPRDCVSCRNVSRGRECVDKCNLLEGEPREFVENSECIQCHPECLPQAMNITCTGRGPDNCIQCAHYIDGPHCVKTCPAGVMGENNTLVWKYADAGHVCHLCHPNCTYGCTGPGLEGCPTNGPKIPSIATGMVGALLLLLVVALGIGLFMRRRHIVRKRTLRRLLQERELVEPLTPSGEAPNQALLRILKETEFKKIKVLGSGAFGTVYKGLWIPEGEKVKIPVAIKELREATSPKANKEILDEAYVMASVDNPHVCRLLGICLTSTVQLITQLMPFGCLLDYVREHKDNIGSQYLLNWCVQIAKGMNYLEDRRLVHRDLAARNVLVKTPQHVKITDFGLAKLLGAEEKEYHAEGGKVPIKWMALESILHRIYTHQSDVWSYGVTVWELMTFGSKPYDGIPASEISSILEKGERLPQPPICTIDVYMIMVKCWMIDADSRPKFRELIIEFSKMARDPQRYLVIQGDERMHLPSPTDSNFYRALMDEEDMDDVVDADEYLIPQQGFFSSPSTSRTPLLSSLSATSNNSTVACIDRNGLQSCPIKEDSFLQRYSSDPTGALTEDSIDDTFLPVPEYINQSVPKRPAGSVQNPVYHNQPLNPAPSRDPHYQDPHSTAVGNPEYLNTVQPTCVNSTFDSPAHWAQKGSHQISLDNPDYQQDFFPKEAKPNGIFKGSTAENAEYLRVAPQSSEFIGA

As to `CC(C)n1c(Nc2ccccc2)nc2cnc(Nc3ccc(C(=O)NN4CCN(C)CC4)cc3)nc21` [Compound 8-1], the IC50 against EGFR L858R mutant type was found to be 0.008 µM; in [1], 0.09 µM; at EGFR wild type, 0.003 µM; in experiment [2] (72 hours), 7600 nM; in experiment [3] (72 hours) it was 1390 nM; in experiment [4] (72 hours), 2 nM. The IC50 in [5] is 105 nM; in experiment [6] (72 hours), 2130 nM; in experiment [7] (72 hours), 2060 nM; in experiment [8] (72 hours), 1080 nM; in [9] (72 hours), 5720 nM; in experiment [10] (72 hours), greater than 10000 nM. For the same compound, the IC50 in [11] was 6800 nM; in experiment [12] (setting [15]), greater than 10000 nM; in experiment [13] (72 hours), 3020 nM; in experiment [14] (72 hours) it was 2060 nM.

Regarding `CC(C)n1c(Nc2ccc(F)c(Cl)c2)nc2cnc(Nc3ccc(C(=O)NN4CCN(C)CC4)cc3)nc21` [Compound 8-2], the IC50 is 0.001 µM at EGFR L858R mutant type; less than 0.001 µM in [1]; 0.002 µM against EGFR wild type; greater than 10000 nM in [2] (72 hours); 883 nM in experiment [3] (72 hours); 1.3 nM in [4] (72 hours). Further, the IC50 is 558 nM in experiment [5]; 1860 nM in experiment [6] (72 hours); 6130 nM in experiment [7] (72 hours); 3730 nM in experiment [8] (72 hours); greater than 10000 nM in experiment [9] (72 hours); 5570 nM in experiment [10] (72 hours). Also, the IC50 was greater than 1000 nM in experiment [11], greater than 10000 nM in [12] (setting [15]), 1590 nM in experiment [13] (72 hours) and 9290 nM in [14] (72 hours).

For the compound `COc1cc(C(=O)NN2CCN(C)CC2)ccc1Nc1ncc2nc(Nc3ccccc3)n(C(C)C)c2n1` [Compound 8-7, 3-methoxy-4-(9-isopropyl-8-phenylamino-9H-purin-2-ylamino)-N-(4-methylpiperazin-1-yl)benzamide], the IC50 is greater than 10000 nM in [2] (Homo sapiens, NCI-H1975, 72 hours); 138 nM in [3] (Homo sapiens, NCI-H292, 72 hours); 7.5 nM in [4] (Homo sapiens, HCC827, 72 hours); 12.1 nM in experiment [5] (Homo sapiens); 5820 nM in [6] (Homo sapiens, BT-474, 72 hours); greater than 10000 nM in [7] (Homo sapiens, MDA-MB-468, 72 hours). For the same compound, the IC50 in experiment [8] (Homo sapiens, K562, 72 hours) is greater than 10000 nM; in [9] (Homo sapiens, SW480, 72 hours), greater than 10000 nM; in [10] (Homo sapiens, SW-620, 72 hours) it was greater than 10000 nM; in [11] (Homo sapiens) it was 3760 nM; in experiment [12] (Homo sapiens, HepG2, 72 hours), greater than 10000 nM; in [13] (Homo sapiens, A-375, 72 hours) it was 1310 nM. For the same compound, the IC50 in experiment [14] (Homo sapiens, A-431, 72 hours) was greater than 10000 nM.

As to `CC(C)n1c(Nc2ccccc2)nc2cnc(Nc3ccc(C(=O)NC4CCN(C)CC4)cc3)nc21` [Compounds 8-9], the concentration for half-maximal inhibition (IC50) is 0.0004 µM against EGFR L858R mutant type; 0.006 µM in experiment [1]; less than 0.001 µM against EGFR wild type; greater than 10000 nM in experiment [2] (72 hours); 160 nM in experiment [3] (72 hours); 4.2 nM in experiment [4] (72 hours). Moreover, the 50% inhibitory concentration (IC50) is 72.3 nM in experiment [5]; 1030 nM in experiment [6] (72 hours); 1320 nM in experiment [7] (72 hours); 143 nM in experiment [8] (72 hours); greater than 10000 nM in experiment [9] (72 hours); 524 nM in experiment [10] (72 hours). Moreover, the concentration for half-maximal inhibition (IC50) in experiment [11] was 764 nM; in experiment [12] (setting [15]), greater than 10000 nM; in [13] (72 hours) it was 586 nM; in experiment [14] (72 hours), 1530 nM.

Regarding `CC(C)n1c(Nc2ccccc2)nc2cnc(Nc3ccc(N4CCN(C)CC4)cc3)nc21` [Compounds 8-10], the IC50 came to 0.005 µM on EGFR L858R mutant type; 0.046 µM in experiment [1]; 0.005 µM on EGFR wild type; 2000 nM in experiment [2] (72 hours); 10.5 nM in experiment [3] (72 hours); 0.1 nM in experiment [4] (72 hours). Moreover, the IC50 was 0.9 nM in [5]; 226 nM in experiment [6] (72 hours); 700 nM in experiment [7] (72 hours); 106 nM in [8] (72 hours); greater than 10000 nM in experiment [9] (72 hours); 6060 nM in experiment [10] (72 hours). Besides, the IC50 in [11] was greater than 1000 nM; in experiment [12] (setting [15]) it was 4800 nM; in experiment [13] (72 hours), 1490 nM; in experiment [14] (72 hours), 1580 nM.
